Assay results from PubChem BioAssay AID248 (DTP/NCI, 2004).
“And” between values parts separate entries of the source, which are not always exact repeats. Equal values may be shown once. Inconclusive results and toxic doses are left out. Cut-off read from the data, not from the text of the source: active = T/C of 150% or more; inactive = T/C below 125%.

Test system: L1210 leukemia ip in BDF1 mice, survival T/C
Assay: NCI In Vivo Anticancer Drug Screen. Data for tumor model L1210 Leukemia (intraperitoneal) in B6D2F1 (BDF1) mice
Details: endpoint: mean survival time, higher = longer survival
Method in brief: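 Read-out is survival time, reported as the treated-group measurement over the vehicle-control measurement.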

[1] = dose: 50.0 mg/kg/injection, schedule: Q01DX009 (ip), vehicle: Klucel (hydroxypropylcellulose) (HPC)
[2] = dose: 100.0 mg/kg/injection, schedule: Q01DX009 (ip), vehicle: Klucel (hydroxypropylcellulose) (HPC)
[3] = dose: 100.0 mg/kg/injection, schedule: Q04DX002 (ip), vehicle: saline with Tween-80
[4] = dose: 400.0 mg/kg/injection, schedule: Q04DX002 (ip), vehicle: saline with Tween-80
[5] = dose: 100.0 mg/kg/injection, schedule: Q01DX009 (ip), vehicle: saline
[6] = dose: 100.0 mg/kg/injection, schedule: Q04DX002 (ip), vehicle: saline
[7] = dose: 200.0 mg/kg/injection, schedule: Q01DX009 (ip), vehicle: Klucel (hydroxypropylcellulose) (HPC)
[8] = dose: 200.0 mg/kg/injection, schedule: Q01DX009 (ip), vehicle: saline
[9] = dose: 200.0 mg/kg/injection, schedule: Q04DX002 (ip), vehicle: saline
[10] = dose: 100.0 mg/kg/injection, schedule: Q04DX002 (ip), vehicle: Klucel (hydroxypropylcellulose) (HPC)
[11] = dose: 200.0 mg/kg/injection, schedule: Q04DX002 (ip), vehicle: Klucel (hydroxypropylcellulose) (HPC)
[12] = dose: 400.0 mg/kg/injection, schedule: Q04DX002 (ip), vehicle: Klucel (hydroxypropylcellulose) (HPC)

Measured: T/C

CNC(=O)Oc1ccccc1C(N)=O
inactive: dose: 25.0 mg/kg/injection, schedule: Q01DX009 (ip), vehicle: Klucel (hydroxypropylcellulose) (HPC) 110 % of control | [1] 96 % of control | [2] 96 % of control and 92 % of control

CC(C)P(=O)(CC(=O)O)c1ccccc1 (stereo not given)
inactive: [3] 100 % of control | [4] 97 % of control

CC(C)C(CN)(CCCCN1CCCC1)c1cccc2ccccc12 (stereo not given)
inactive: dose: 12.5 mg/kg/injection, schedule: Q04DX003 (ip), vehicle: saline 96 % of control | dose: 25.0 mg/kg/injection, schedule: Q04DX003 (ip), vehicle: saline 93 % of control | dose: 50.0 mg/kg/injection, schedule: Q04DX003 (ip), vehicle: saline 96 % of control

O=C(Cc1ccc(CC(=O)NO)cc1)NO
inactive: dose: 75.0 mg/kg/injection, schedule: Q01DX001 (ip), vehicle: saline 100 % of control | dose: 150.0 mg/kg/injection, schedule: Q01DX001 (ip), vehicle: saline 96 % of control

CCN(CCCCOC(=O)c1ccc(OC)c(OC)c1)C(C)Cc1ccc(OC)cc1 (stereo not given)
inactive: dose: 9.37 mg/kg/injection, schedule: Q01DX009 (ip), vehicle: saline 95 % of control | dose: 18.75 mg/kg/injection, schedule: Q01DX009 (ip), vehicle: saline 87 % of control | dose: 18.75 mg/kg/injection, schedule: Q04DX003 (ip), vehicle: saline 114 % of control | dose: 37.5 mg/kg/injection, schedule: Q01DX009 (ip), vehicle: saline 101 % of control | dose: 37.5 mg/kg/injection, schedule: Q04DX003 (ip), vehicle: saline 100 % of control | dose: 75.0 mg/kg/injection, schedule: Q01DX009 (ip), vehicle: saline 108 % of control | dose: 75.0 mg/kg/injection, schedule: Q04DX003 (ip), vehicle: saline 100 % of control | dose: 150.0 mg/kg/injection, schedule: Q04DX003 (ip), vehicle: saline 105 % of control

CC(=O)NC(CC(=O)O)C(=O)O (stereo not given)
inactive: [1] 97 % of control | dose: 50.0 mg/kg/injection, schedule: Q04DX002 (ip), vehicle: saline 107 % of control | [2] 105 % of control | [5] 107 % of control | [6] 107 % of control | dose: 100.0 mg/kg/injection, schedule: Q04DX003 (ip), vehicle: Klucel (hydroxypropylcellulose) (HPC) 90 % of control | [7] 101 % of control | [8] 113 % of control | [9] 98 % of control | dose: 200.0 mg/kg/injection, schedule: Q04DX003 (ip), vehicle: Klucel (hydroxypropylcellulose) (HPC) 87 % of control | dose: 400.0 mg/kg/injection, schedule: Q01DX009 (ip), vehicle: saline 102 % of control | dose: 400.0 mg/kg/injection, schedule: Q04DX003 (ip), vehicle: Klucel (hydroxypropylcellulose) (HPC) 97 % of control

CC1(C)OC2COC(c3[nH]nc(C(N)=O)c3I)C2O1 (stereo not given)
inactive: dose: 100.0 mg/kg/injection, schedule: Q01DX005 (ip), vehicle: saline 93 % of control | dose: 200.0 mg/kg/injection, schedule: Q01DX005 (ip), vehicle: saline 95 % of control

O=C(COc1ccc(Cl)cc1)C1CSc2ccc3ccccc3c21 (stereo not given)
inactive: dose: 100.0 mg/kg/injection, schedule: Q04DX003 (ip), vehicle: saline sonified 88 % of control | dose: 200.0 mg/kg/injection, schedule: Q04DX003 (ip), vehicle: saline sonified 89 % of control | dose: 400.0 mg/kg/injection, schedule: Q04DX003 (ip), vehicle: saline sonified 88 % of control

O=C(O)CCC1CCC(=O)NC1=O (stereo not given)
inactive: dose: 25.0 mg/kg/injection, schedule: Q04DX002 (ip), vehicle: Klucel (hydroxypropylcellulose) (HPC) 95 % of control | dose: 50.0 mg/kg/injection, schedule: Q04DX002 (ip), vehicle: Klucel (hydroxypropylcellulose) (HPC) 101 % of control | [10] 89 % of control | [11] 103 % of control | [12] 88 % of control

OCC(O)C(O)C(O)C(O)CNCC(O)C(O)C(O)C(O)CO (stereo not given)
inactive: [6] 98 % of control and 91 % of control and 88 % of control | [9] 91 % of control and 100 % of control | dose: 400.0 mg/kg/injection, schedule: Q04DX002 (ip), vehicle: saline 91 % of control and 107 % of control and 95 % of control

O=C(c1ccc([N+](=O)[O-])cc1)N1C2CCCCCCC21 (stereo not given)
inactive: dose: 50.0 mg/kg/injection, schedule: Q01DX009 (ip), vehicle: saline 121 % of control | dose: 100.0 mg/kg/injection, schedule: Q01DX001 (ip), vehicle: saline 94 % of control | [5] 113 % of control | dose: 200.0 mg/kg/injection, schedule: Q01DX001 (ip), vehicle: saline 89 % of control | [8] 110 % of control

O=C1C(N2CC2)=C(N2CC2)C(=O)C(N2CC2)=C1N1CC1
inactive: dose: 0.12 mg/kg/injection, schedule: Q01DX001 (ip), vehicle: saline 112 % of control

O=C(O)c1ccccc1Nc1ccccc1[N+](=O)[O-]
inactive: dose: 100.0 mg/kg/injection, schedule: Q01DX005 (ip), vehicle: Klucel (hydroxypropylcellulose) (HPC) 90 % of control | [2] 87 % of control | [10] 93 % of control | dose: 200.0 mg/kg/injection, schedule: Q01DX005 (ip), vehicle: Klucel (hydroxypropylcellulose) (HPC) 94 % of control | [7] 102 % of control | [11] 100 % of control | dose: 400.0 mg/kg/injection, schedule: Q01DX005 (ip), vehicle: Klucel (hydroxypropylcellulose) (HPC) 105 % of control | dose: 400.0 mg/kg/injection, schedule: Q01DX009 (ip), vehicle: Klucel (hydroxypropylcellulose) (HPC) 94 % of control | [12] 96 % of control

Cc1cc(C)c2c(c1)NP(=S)(c1ccccc1)N2 (stereo not given)
inactive: dose: 75.0 mg/kg/injection, schedule: Q04DX002 (ip), vehicle: gum acacia 93 % of control | dose: 150.0 mg/kg/injection, schedule: Q04DX002 (ip), vehicle: gum acacia 93 % of control | dose: 300.0 mg/kg/injection, schedule: Q04DX002 (ip), vehicle: gum acacia 93 % of control

CC(=O)N1CCN(C(C)=O)C1=S
inactive: dose: 100.0 mg/kg/injection, schedule: Q01DX001 (ip), vehicle: Klucel (hydroxypropylcellulose) (HPC) 96 % of control | dose: 200.0 mg/kg/injection, schedule: Q01DX001 (ip), vehicle: Klucel (hydroxypropylcellulose) (HPC) 95 % of control | dose: 400.0 mg/kg/injection, schedule: Q01DX001 (ip), vehicle: Klucel (hydroxypropylcellulose) (HPC) 98 % of control

CC1CCCCN1Cc1ccccc1COC(=O)c1cccc(Cl)c1 (stereo not given)
inactive: dose: 25.0 mg/kg/injection, schedule: Q04DX002 (ip), vehicle: other 98 % of control | dose: 50.0 mg/kg/injection, schedule: Q04DX002 (ip), vehicle: other 113 % of control | dose: 50.0 mg/kg/injection, schedule: Q04DX002 (ip), vehicle: saline with Tween-80 91 % of control | dose: 100.0 mg/kg/injection, schedule: Q04DX002 (ip), vehicle: other 88 % of control | [3] 94 % of control and 86 % of control | [4] 101 % of control
